Measurements from patent EP0311051A2, “Pyridylacetonitrile derivatives” (priority 1987, dated 1989).
Values after ≈ are worked out from the molar mass of the structure shown.

Tests used:
Sclerotinia sclerotiorum = assay: Antifungal activity against Sclerotinia rot of kidney bean (sprayed cotyledons, mycelial inoculation); format: in vivo; conditions: 500 ppm a.i.; for Average infected area: 28°C, RH 100%, 4 days; for Controlled value: (1-S/S₀)×100, 4 days
Protocol: A 20 ml sample solution containing a predetermined concentration of the active compound was sprayed on 10 cotyledons of a kidney bean (variety: Masterpiece), which were dried in a room. After drying, the mycelia of Sclerotinia sclerotiorum grown on a PDA culture medium was inoculated after punching with a cork borer. The incubation was carried out at a temperature of 28°C and an RH of 100% for 4 days. The infected area was measured. Ten tests were carried out in each run. […]

Botrytis cinerea [1] = assay: Antifungal activity against Botrytis cinerea by agar dilution method; format: cell-based; conditions: 120 h, concentration for 90% inhibition of mycelium growth, potato-agar medium, 25°C, 5 days, read-out: EC₉₀
Protocol: The culture medium thus obtained was allowed to stand in a room with constant temperature for predetermined days. Thereafter, the growth of mycelium of the microorganism was measured and the concentration for 90% inhibition of the growth (EC₉₀) was determined. Four tests were carried out in each run. The tests for microorganisms were carried out at a temperature of 25°C for 5 days.

Botrytis cinerea [2] = assay: Activity persistence against gray mold of egg plant (spray 1 to 10 days before inoculation); format: in vivo; conditions: 250 ppm a.i.
Botrytis cinerea [3] = assay: Curative activity against gray mold of egg plant (detached leaf, spray after disease development); format: in vivo; conditions: 125 ppm a.i.
Protocol: A second developed leaf of egg plant (variety: Senryo #12) was placed in a petri dish and the mycelia of Botrytis cinerea grown on a PDA culture medium was inoculated after punching with a cork borer on the center of the leaf. The incubation was carried out at 25°C under humid condition for 24 hours. […] After air drying, the incubation was carried out at 25°C under humid condition. The diameter of the infected area was measured every day for 5 days after the application. Eight tests were carried out in each run.

[4] = test system: rice blast fungus (Pyricularia oryzae); format: in vivo; conditions: 500 ppm a.i., 10 days after inoculation; for No. of leaves in each infection degree 0: index 0 = 0 lesions per leaf; for No. of leaves in each infection degree 1: index 1 = 1 lesion per leaf; for No. of leaves in each infection degree 2: index 2 = 2-5 lesions per leaf; for No. of leaves in each infection degree 3: index 3 = 6-10 lesions per leaf; for No. of leaves in each infection degree 4: index 4 = 11 or more lesions per leaf; for % of Infected leaves / Infection degree / No. of infected leaves: rice seedlings
[5] = 1 day between application and inoculation
[6] = 4 days between application and inoculation
[7] = 7 days between application and inoculation
[8] = 10 days between application and inoculation
[9] = 1 day between application and observation
[10] = 2 days between application and observation
[11] = 3 days between application and observation
[12] = 4 days between application and observation
[13] = 5 days between application and observation

Row | SMILES | Average infected area (Sclerotinia sclerotiorum) [%] | Controlled value (Sclerotinia sclerotiorum) [%] | EC90 (Botrytis cinerea [1]) [µg/mL] | Infection degree (Botrytis cinerea [2]; [5]) | Infection degree (Botrytis cinerea [2]; [6]) | Infection degree (Botrytis cinerea [2]; [7]) | Infection degree (Botrytis cinerea [2]; [8]) | Diameter of lesion (Botrytis cinerea [3]; [9]) [mm] | Diameter of lesion (Botrytis cinerea [3]; [10]) [mm] | Diameter of lesion (Botrytis cinerea [3]; [11]) [mm] | Diameter of lesion (Botrytis cinerea [3]; [12]) [mm] | Diameter of lesion (Botrytis cinerea [3]; [13]) [mm] | No. of leaves in each infection degree 0 [4] | No. of leaves in each infection degree 1 [4] | No. of leaves in each infection degree 2 [4] | No. of leaves in each infection degree 3 [4] | No. of leaves in each infection degree 4 [4] | % of Infected leaves [4] [%] | Infection degree [4] | No. of infected leaves [4]
1 | CCCC(c1ccc(Cl)cc1Cl)C(C#N)n1ccnc1 (centres unmarked) [A, 3-(2,4-dichlorophenyl)-2-(1-imidazolyl)hexanenitrile] | 40 | 60 | 10.9 (≈ 35.4 µM) | 25.0 | 37.5 | 45.0 | 62.5 | 10 | 18 | 23 | 26 | 30 |  |  |  |  |  |  |  | 
2 | CCC(c1ccc(Cl)cc1Cl)C(C#N)c1cccnc1 (centres unmarked) [Compound 1, 3-(2,4-dichlorophenyl)-2-(3-pyridyl)pentanenitrile] | 5 | 95 | 1.4 (≈ 4.59 µM) | 10.0 | 12.0 | 17.5 | 17.5 | 10 | 15 | 17 | 19 | 19 | 145 | 48 | 13 | 0 | 0 | 29.6 | 9.0 | 206
3 | CCC(c1ccc(F)cc1Cl)C(C#N)c1cccnc1 (centres unmarked) [Compound 12, 3-(2-chloro-4-fluorophenyl)-2-(3-pyridyl)pentanenitrile] | 5 | 95 | 0.9 (≈ 3.12 µM) | 10.0 | 11.0 | 12.0 | 15.0 | 10 | 15 | 17 | 19 | 19 |  |  |  |  |  |  |  | 
4 | CC12CC1(C)C(=O)N(c1cc(Cl)cc(Cl)c1)C2=O (centres unmarked) [D, N-(3′,5′-dichlorophenyl)-1,2-dimethylcyclopropane-1,2-dicarboximide] |  |  |  | 12.0 | 15.5 | 20.5 | 25.0 |  |  |  |  |  |  |  |  |  |  |  |  | 
5 | COC(=O)NC(=S)Nc1ccccc1NC(=S)NC(=O)OC [E, dimethyl-4,4′-o-phenylene-bis(3-thioalfanate)] | 20 | 80 |  |  |  |  |  | 10 | 18 | 21 | 22 | 26 |  |  |  |  |  |  |  | 
6 | CC(C)OC(=O)C(C(=O)OC(C)C)=C1SCCS1 [F, diisopropyl-1,3,-dithiolan-2-ylidene malonate] |  |  |  |  |  |  |  |  |  |  |  |  | 128 | 45 | 12 | 0 | 0 | 30.8 | 9.3 | 185
7 | O=C1OCc2c(Cl)c(Cl)c(Cl)c(Cl)c21 [G, 4,5,6,7-tetrachlorophthalide] |  |  |  |  |  |  |  |  |  |  |  |  | 151 | 28 | 1 | 0 | 0 | 16.1 | 4.2 | 180
